Common to all, as to format: in vivo
The subject of one experiment is Leptosphaeria nodorum. Put plainly: Glume Blotch of Wheat (LEPTNO), whole-plant fungicide test. Conditions: one-day protectant test; for pest or weed control at 100 ppm / pest or weed control at 200 ppm: Parastagonospora nodorum, 24 h, read-out: LEPTNO percent control of disease; for pest or weed control at 100 ppm: 100 ppm (footnote a); for pest or weed control at 200 ppm: foliar; for pest or weed control at 200 ppm / LEPTNO percent control of disease: 200 ppm on foliage.

The subject of experiment [1] is Puccinia recondita tritici. Put plainly: Leaf Rust of Wheat (PUCCRT), whole-plant fungicide test. Conditions: one-day protectant test; for pest or weed control at 100 ppm / pest or weed control at 200 ppm: Puccinia recondita, 24 h, read-out: PUCCRT percent control of disease; for pest or weed control at 100 ppm: 100 ppm (footnote a); for pest or weed control at 200 ppm: foliar; for pest or weed control at 200 ppm / PUCCRT percent control of disease: 200 ppm on foliage.

Another experiment relates to Colletotricum lagenarium. Put plainly: Cucumber Anthracnose (COLLLA), whole-plant fungicide test. Conditions: 200 ppm on foliage, one-day protectant test; for pest or weed control at 200 ppm: Cucumis sativus, foliar, 24 h, read-out: COLLLA percent control of disease.
For another experiment, the system named is Erysiphe cichoracaerum. Put plainly: Cucumber Powdery Mildew (ERYSCI), whole-plant fungicide test. Conditions: 200 ppm on foliage, one-day protectant test; for pest or weed control at 200 ppm: Erysiphe, foliar, 24 h, read-out: ERYSCI percent control of disease.
In another experiment the test system is Phytophthora infestans. Put plainly: whole plant or invertebrate. The settings on record: for pest or weed control at 200 ppm: Phytophthora infestans, in Solanum lycopersicum, foliar, 24 h, read-out: PHYTIN percent control of disease, 200 ppm on foliage, tomato, one-day protectant test; for PHYTIN percent control of disease: 200 ppm on foliage, tomato, one-day protectant test.

In a further experiment the test system is Magnaporthe grisea. Put plainly: whole plant or invertebrate. Conditions: for pest or weed control at 200 ppm: Pyricularia oryzae, in Oryza sativa, foliar, 24 h, read-out: PYRIOR percent control of disease, 200 ppm on foliage, rice, one-day protectant test; for PYRIOR percent control of disease: 200 ppm on foliage, rice, one-day protectant test.

Turning to `CC(Nc1ncnc2scc(Cl)c12)c1ccc2oc(CC(C)(C)C)nc2c1` (stereo not drawn) [Compound 1a], the pest or weed control at 100 ppm with Leptosphaeria nodorum was 50 to 79%; in experiment [1], 80 to 100%.

With `Clc1csc2ncnc(NCCc3ccc4ccccc4c3)c12` [Compound 2a], the pest or weed control at 200 ppm with Colletotricum lagenarium fell in the range of 0 to 49%; in the experiment on Erysiphe cichoracaerum, 80 to 100%; in the experiment on Leptosphaeria nodorum it was 0 to 49%; in the experiment on Phytophthora infestans it was 80 to 100%; in experiment [1], 80 to 100%; in the experiment with Magnaporthe grisea, 80 to 100%.

As for `CC(Nc1ncnc2scc(Cl)c12)c1cccc2ccccc12` (stereo not drawn) [Compound 3a], the pest or weed control at 200 ppm with Colletotricum lagenarium lay within 0 to 49%; in the experiment on Erysiphe cichoracaerum, 80 to 100%; in the experiment on Leptosphaeria nodorum it was 0 to 49%; in the experiment with Phytophthora infestans, 0 to 49%; in experiment [1] it was 80 to 100%; in the experiment on Magnaporthe grisea, 80 to 100%.

As to `CC(C)(C)OC(=O)c1ccc(CNc2ncnc3scc(Cl)c23)cc1` [Compound 4a], the pest or weed control at 200 ppm with Colletotricum lagenarium was 0 to 49%; with Erysiphe cichoracaerum, 0 to 49%; in the experiment on Leptosphaeria nodorum, 0 to 49%; in the experiment with Phytophthora infestans, 0 to 49%; in experiment [1] it was 0 to 49%; with Magnaporthe grisea, 50 to 79%.

For the compound `CC(Nc1ncnc2scc(Cl)c12)c1ccc(N2CCOCC2)cc1` (stereo not drawn) [Compound 7a], the pest or weed control at 200 ppm was in the range of 50 to 79% in the experiment on Colletotricum lagenarium; 80 to 100% with Erysiphe cichoracaerum; 0 to 49% in the experiment with Leptosphaeria nodorum; 80 to 100% in the experiment with Phytophthora infestans; 80 to 100% in experiment [1]; 80 to 100% in the experiment with Magnaporthe grisea.

`Clc1csc2ncnc(NCCc3ccc(N4CCOCC4)cc3)c12` [Compound 8a]: the results for the pest or weed control at 100 ppm (with Leptosphaeria nodorum; in experiment [1]) were 50 to 79% and 80 to 100%, respectively.

Take `CC(Nc1ncnc2scc(Cl)c12)c1cnccn1` (stereo not drawn) [Compound 23]: the pest or weed control at 200 ppm in the experiment with Colletotricum lagenarium fell in the range of 0 to 49%; with Erysiphe cichoracaerum, 80 to 100%; in the experiment with Leptosphaeria nodorum it was 0 to 49%; in the experiment with Phytophthora infestans, 0 to 49%; in experiment [1] it was 80 to 100%; with Magnaporthe grisea, 50 to 79%.

For `CC(C)c1ccc(C(C)Nc2ncnc3scc(Cl)c23)cc1` (stereo not drawn) [Compound 24], the pest or weed control at 200 ppm with Colletotricum lagenarium was 0 to 49%. For the same compound, the “ERYSCI percent control of disease” value with Erysiphe cichoracaerum was “* (* is 0-49 percent control of disease)”. Also, in the experiment with Leptosphaeria nodorum, the “LEPTNO percent control of disease” value is listed as “* (* is 0-49 percent control of disease)”. Besides, the “PHYTIN percent control of disease” value with Phytophthora infestans was “* (* is 0-49 percent control of disease)”. The “PUCCRT percent control of disease” value in experiment [1] is “* (* is 0-49 percent control of disease)”. The “PYRIOR percent control of disease” value in the experiment on Magnaporthe grisea is “** (** is 50-79 percent control of disease)”.

As to `CC(C)c1ccc(C(C)Nc2ncnc3scc(Cl)c23)cc1` (stereo not drawn) [Compound 25], the “COLLLA percent control of disease” value with Colletotricum lagenarium was “* (* is 0-49 percent control of disease)”. In the experiment on Erysiphe cichoracaerum, the “ERYSCI percent control of disease” value is listed as “*** (*** is 80-100 percent control of disease)”. Moreover, in the experiment on Leptosphaeria nodorum, the “LEPTNO percent control of disease” value was “*** (*** is 80-100 percent control of disease)”. In the experiment with Phytophthora infestans, the “PHYTIN percent control of disease” value is reported as “*** (*** is 80-100 percent control of disease)”. Further, the “PUCCRT percent control of disease” value in experiment [1] is “*** (*** is 80-100 percent control of disease)”. Moreover, in the experiment with Magnaporthe grisea, the “PYRIOR percent control of disease” value is recorded as “*** (*** is 80-100 percent control of disease)”.

Regarding `CC(Nc1ncnc2scc(Cl)c12)c1ccc(C(F)(F)F)cc1` (stereo not drawn) [Compound 26], the pest or weed control at 200 ppm lay within 0 to 49% with Colletotricum lagenarium; 80 to 100% with Erysiphe cichoracaerum; 80 to 100% with Leptosphaeria nodorum; 0 to 49% in the experiment on Phytophthora infestans; 80 to 100% in experiment [1]; 80 to 100% in the experiment on Magnaporthe grisea.

`COc1ccc(C(C)Nc2ncnc3scc(Cl)c23)cc1` (stereo not drawn) [Compound 27]: the pest or weed control at 200 ppm with Colletotricum lagenarium lay in the range of 0 to 49%; in the experiment on Erysiphe cichoracaerum it was 80 to 100%; with Leptosphaeria nodorum, 50 to 79%; in the experiment with Phytophthora infestans it was 0 to 49%; in experiment [1] it was 80 to 100%; in the experiment with Magnaporthe grisea, 80 to 100%.

For `COc1ccc(OCCNc2ncnc3scc(Cl)c23)cc1` [Compound 64], the pest or weed control at 200 ppm fell in the range of 0 to 49% with Colletotricum lagenarium; 0 to 49% in the experiment on Erysiphe cichoracaerum; 0 to 49% in the experiment on Leptosphaeria nodorum; 0 to 49% in the experiment with Phytophthora infestans; 80 to 100% in experiment [1]; 80 to 100% in the experiment on Magnaporthe grisea.

As for `CC(Nc1ncnc2scc(Br)c12)c1cnc(OCC(F)(F)F)nc1` (stereo not drawn) [Compound 67], the pest or weed control at 200 ppm was 0 to 49% in the experiment on Colletotricum lagenarium; 0 to 49% in the experiment with Erysiphe cichoracaerum; 0 to 49% with Leptosphaeria nodorum; 0 to 49% in the experiment on Phytophthora infestans; 80 to 100% in experiment [1]; 0 to 49% with Magnaporthe grisea.

Take `COc1ccc(C(C)Nc2ncnc3scc(I)c23)cc1` (stereo not drawn) [Compound 70, (5-Iodothieno[2,3-d]pyrimidin-4-yl)-[1-(4-methoxyphenyl)ethyl]amine]: the pest or weed control at 200 ppm in the experiment with Colletotricum lagenarium fell in the range of 0 to 49%; with Erysiphe cichoracaerum it was 0 to 49%; with Leptosphaeria nodorum it was 0 to 49%; with Phytophthora infestans, 0 to 49%; in experiment [1], 0 to 49%; in the experiment on Magnaporthe grisea it was 50 to 79%.

As to `COc1ncc(C(C)Nc2ncnc3scc(Cl)c23)s1` (stereo not drawn) [Compound 72], the pest or weed control at 200 ppm lay in the range of 0 to 49% with Colletotricum lagenarium; 80 to 100% in the experiment on Erysiphe cichoracaerum; 0 to 49% in the experiment with Leptosphaeria nodorum; 0 to 49% in the experiment on Phytophthora infestans; 80 to 100% in experiment [1]; 80 to 100% in the experiment with Magnaporthe grisea.

In the case of `CC(Nc1ncnc2scc(Cl)c12)c1ccc(OCC(F)(F)F)cc1` (stereo not drawn) [Compound 73], the pest or weed control at 200 ppm with Colletotricum lagenarium is 80 to 100%; with Erysiphe cichoracaerum, 80 to 100%; in the experiment with Leptosphaeria nodorum, 50 to 79%; in the experiment with Phytophthora infestans it was 0 to 49%; in experiment [1], 80 to 100%; in the experiment on Magnaporthe grisea, 80 to 100%.

Take `COCC1CC1C(C)Nc1ncnc2scc(Cl)c12` (stereo not drawn) [Compound 81]: the pest or weed control at 100 ppm in experiment [1] lay in the range of 80 to 100%.

In the case of `CC(Nc1ncnc2scc(Cl)c12)c1ccc(OC(F)(F)F)cc1` (stereo not drawn) [Compound 82], the pest or weed control at 200 ppm in the experiment on Colletotricum lagenarium fell in the range of 0 to 49%; in the experiment on Erysiphe cichoracaerum, 80 to 100%; in the experiment with Leptosphaeria nodorum, 0 to 49%; with Phytophthora infestans it was 0 to 49%; in experiment [1] it was 80 to 100%.

`COc1cc(F)ccc1C(C)Nc1ncnc2scc(Cl)c12` (stereo not drawn) [Compound 83]: the pest or weed control at 200 ppm is 0 to 49% in the experiment on Colletotricum lagenarium; 80 to 100% in the experiment with Erysiphe cichoracaerum; 0 to 49% with Leptosphaeria nodorum; 0 to 49% in the experiment with Phytophthora infestans; 80 to 100% in experiment [1].

Turning to `CC(Nc1ncnc2scc(Cl)c12)c1ccc(OCC(F)(F)F)nc1` (stereo not drawn) [Compound 84], the pest or weed control at 100 ppm in experiment [1] lay within 80 to 100%.

With `COc1ccc(COCC2CC2C(C)Nc2ncnc3scc(Cl)c23)cc1` (stereo not drawn) [Compound 85], the pest or weed control at 200 ppm with Colletotricum lagenarium lay in the range of 0 to 49%; in the experiment on Erysiphe cichoracaerum it was 80 to 100%; in the experiment on Leptosphaeria nodorum, 0 to 49%; in the experiment with Phytophthora infestans, 80 to 100%; in experiment [1] it was 80 to 100%.

Source of the values: patent US8008487B2, “Substituted thieno[2,3-D]pyrimidines as fungicides” (priority 2004, dated 2011).
